Test results taken from US8658646B2, “Pyrrolopyrazine kinase inhibitors” (Hoffmann-LaRoche Inc., priority 2011, dated 2014).
Values joined by “and” are separate entries in the source; they are usually repeats but may differ in a detail not shown here. Equal values may be shown once.

Columns and labels:
[1] = molecular target: T1, recombinant human SYK360-635 (Homo sapiens, UniProt P43405); test: Determination of IC50 of Spleen Tyrosine Kinase (SYK) inhibition, 33P ATP filtration assay; format: biochemical; conditions: SYK aa 360-635 0.5 nM; ATP 20 μM, peptide 5 μM, 0.1% BSA; read-out: SYK_ENZYME_FILTRATION/v1, BSA
T1 construct: made in house

[2] = molecular target: T2, JAK3: Recombinant human kinase domain (Homo sapiens, UniProt P52333); test: Determination of IC50 of Janus Kinase (JAK) inhibition, radioactive end-point 33P-ATP assay, JAK3; format: biochemical; conditions: ATP 1.5 uM, peptide 50 uM, 20 minutes, read-out: JAK3-INHIB-DR/v1~NO ADDITIVE~Enzyme_Conc = 100
T2 construct: JAK3: Recombinant human kinase domain from Millipore (Cat #14-629) or prepared; purchased Millipore 14-629
T2 sequence (P52333 822-1111 limits assumed): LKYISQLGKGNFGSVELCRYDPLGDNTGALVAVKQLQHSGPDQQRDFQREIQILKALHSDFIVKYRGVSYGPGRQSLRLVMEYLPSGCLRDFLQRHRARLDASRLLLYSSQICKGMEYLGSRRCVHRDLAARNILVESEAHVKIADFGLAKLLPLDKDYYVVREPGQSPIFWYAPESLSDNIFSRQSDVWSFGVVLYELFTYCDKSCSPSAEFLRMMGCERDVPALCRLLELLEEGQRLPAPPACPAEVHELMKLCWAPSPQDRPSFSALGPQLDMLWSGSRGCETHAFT

## Cn1nc(-c2cnc3[nH]cc(C(=O)NC4(C)CC4)c3n2)c2ccc(F)cc21 [Example I-378, 2-(6-Fluoro-1-methyl-1H-indazol-3-yl)-5H-pyrrolo[2,3-b]pyrazine-7-carboxylic acid (1-methyl-cyclopropyl)-amide]
[1]
  IC50: 3.08 nM
[2]
  IC50: 12.8 nM

## CC(C)(C)NC(=O)c1c[nH]c2ncc(-c3ncn4cc(F)ccc34)nc12 [Example I-357, 2-(6-Fluoro-imidazo[1,5-a]pyridin-1-yl)-5H-pyrrolo[2,3-b]pyrazine-7-carboxylic acid tert-butylamide]
[1]
  IC50: 14.8 nM
[2]
  IC50: 5.3 nM

## CC(NC(=O)c1c[nH]c2ncc(-c3nn(C)c4cc(F)ccc34)nc12)C(O)C1CCOCC1 (single isomer, unassigned) [Example I-204, 2-(6-Fluoro-1-methyl-1H-indazol-3-yl)-5H-pyrrolo[2,3-b]pyrazine-7-carboxylic acid [trans-2-hydroxy-1-methyl-2-(tetrahydro-pyran-4-yl)-ethyl]-amide]
[1]
  IC50: 205 nM
[2]
  IC50: 217 nM

## Cn1nc(-c2cnc3[nH]cc(C(=O)NC4CCCCC4)c3n2)c2ccc(Cl)cc21 [Example I-110, 2-(6-Chloro-1-methyl-1H-indazol-3-yl)-5H-pyrrolo[2,3-b]pyrazine-7-carboxylic acid cyclohexylamide]
[1]
  IC50: 249 nM
[2]
  IC50: 7.3 nM

## CC(NC(=O)c1c[nH]c2ncc(-c3nn(CCN(C)C)c4cc(F)ccc34)nc12)c1ccncc1 (stereo not shown) [Example I-249, 2-[1-(2-Dimethylamino-ethyl)-6-fluoro-1H-indazol-3-yl]-5H-pyrrolo[2,3-b]pyrazine-7-carboxylic acid (1-pyridin-4-yl-ethyl)-amide]
[1]
  IC50: 1990 nM
[2]
  IC50: 170 nM

## CC(NC(=O)c1c[nH]c2ncc(-c3nn(C)c4cc(Cl)ccc34)nc12)c1cccnc1 (stereo not shown) [Example I-247, 2-(6-Chloro-1-methyl-1H-indazol-3-yl)-5H-pyrrolo[2,3-b]pyrazine-7-carboxylic acid (1-pyridin-3-yl-ethyl)-amide]
[1]
  IC50: 69.2 nM
[2]
  IC50: 66.7 nM

## CC(Cc1ccccn1)NC(=O)c1c[nH]c2ncc(-c3nn(CCN4CCCC4)c4cc(F)ccc34)nc12 (stereo not shown) [Example I-250, 2-[6-Fluoro-1-(2-pyrrolidin-1-yl-ethyl)-1H-indazol-3-yl]-5H-pyrrolo[2,3-b]pyrazine-7-carboxylic acid (1-methyl-2-pyridin-2-yl-ethyl)-amide]
[1]
  IC50: 8930 nM
[2]
  IC50: > 1000 nM

## C[C@@H](NC(=O)c1c[nH]c2ncc(-c3nn(C)c4cc(Cl)ccc34)nc12)c1ccccc1 [Example I-25, 2-(6-Chloro-1-methyl-1H-indazol-3-yl)-5H-pyrrolo[2,3-b]pyrazine-7-carboxylic acid ((R)-1-phenyl-ethyl)-amide]
[1]
  IC50: 54.2 nM
[2]
  IC50: 19.2 nM

## CC(CN1CCC(C#N)C1)NC(=O)c1c[nH]c2ncc(-c3nn(C)c4cc(Cl)ccc34)nc12 (stereo not shown) [Example I-125, 2-(6-Chloro-1-methyl-1H-indazol-3-yl)-5H-pyrrolo[2,3-b]pyrazine-7-carboxylic acid [2-(3-cyano-pyrrolidin-1-yl)-1-methyl-ethyl]-amide]
[1]
  IC50: 83.5 nM
[2]
  IC50: 29.3 nM

## CC(NC(=O)c1c[nH]c2ncc(-c3nn(CCN4CCOCC4)c4cc(Cl)ccc34)nc12)c1cccnc1 (stereo not shown) [Example I-245, 2-[6-Chloro-1-(2-morpholin-4-yl-ethyl)-1H-indazol-3-yl]-5H-pyrrolo[2,3-b]pyrazine-7-carboxylic acid (1-pyridin-3-yl-ethyl)-amide]
[1]
  IC50: 131 nM
[2]
  IC50: 47.2 nM

## CC(C)NC(=O)c1c[nH]c2ncc(-c3nn(CCCN(C)C)c4cc(Cl)cc(F)c34)nc12 [Example I-131, 2-[6-Chloro-1-(3-dimethylamino-propyl)-4-fluoro-1H-indazol-3-yl]-5H-pyrrolo[2,3-b]pyrazine-7-carboxylic acid isopropylamide]
[1]
  IC50: 39.8 nM
[2]
  IC50: 7.06 nM

## Cn1nc(-c2cnc3[nH]cc(C(=O)NCCN)c3n2)c2ccc(Cl)cc21 [Example I-143, 2-(6-Chloro-1-methyl-1H-indazol-3-yl)-5H-pyrrolo[2,3-b]pyrazine-7-carboxylic acid (2-amino-ethyl)-amide]
[1]
  IC50: 54.9 nM
[2]
  IC50: > 1000 nM and 536 nM

## CC(C)(C)NC(=O)c1c[nH]c2ncc(-c3nn(CCCN4CC(F)(F)C4)c4ccc(OC(F)F)cc34)nc12 [Example I-296, 2-{1-[3-(3,3-Difluoro-azetidin-1-yl)-propyl]-5-difluoromethoxy-1H-indazol-3-yl}-5H-pyrrolo[2,3-b]pyrazine-7-carboxylic acid tert-butylamide]
[1]
  IC50: 13.9 nM
[2]
  IC50: 78.7 nM

## C[C@H](Cn1ccnc1)NC(=O)c1c[nH]c2ncc(-c3nn(C)c4cc(Cl)ccc34)nc12 [Example I-134, 2-(6-Chloro-1-methyl-1H-indazol-3-yl)-5H-pyrrolo[2,3-b]pyrazine-7-carboxylic acid ((R)-2-imidazol-1-yl-1-methyl-ethyl)-amide]
[1]
  IC50: 482 nM
[2]
  IC50: 67.3 nM

## CC(C)NC(=O)c1c[nH]c2ncc(-c3nn(C)c4ccc(OC(F)(F)F)cc34)nc12 [Example I-281, 2-(1-Methyl-5-trifluoromethoxy-1H-indazol-3-yl)-5H-pyrrolo[2,3-b]pyrazine-7-carboxylic acid isopropylamide]
[1]
  IC50: 12.5 nM
[2]
  IC50: 60.9 nM

## Cn1nc(-c2cnc3[nH]cc(C(=O)NC4CCC(NS(C)(=O)=O)C4)c3n2)c2ccc(Cl)cc21 (stereo not shown) [Example I-38, 2-(6-Chloro-1-methyl-1H-indazol-3-yl)-5H-pyrrolo[2,3-b]pyrazine-7-carboxylic acid (3-methanesulfonylamino-cyclopentyl)-amide]
[1]
  IC50: 15.9 nM
[2]
  IC50: 9.01 nM

## COC[C@H](C)NC(=O)c1c[nH]c2ncc(-c3nn(Cc4cccnc4)c4cc(F)ccc34)nc12 [Example I-241, 2-(6-Fluoro-1-pyridin-3-ylmethyl-1H-indazol-3-yl)-5H-pyrrolo[2,3-b]pyrazine-7-carboxylic acid ((S)-2-methoxy-1-methyl-ethyl)-amide]
[1]
  IC50: 20.3 nM
[2]
  IC50: 0.41 nM

## Cn1nc(-c2cnc3[nH]cc(C(=O)N[C@@H]4CCc5ccccc54)c3n2)c2ccc(Cl)cc21 [Example I-157, 2-(6-Chloro-1-methyl-1H-indazol-3-yl)-5H-pyrrolo[2,3-b]pyrazine-7-carboxylic acid (R)-indan-1-ylamide]
[1]
  IC50: 413 nM
[2]
  IC50: 71.6 nM

## Cn1nc(-c2cnc3[nH]cc(C(=O)NC4CCC(N)C4)c3n2)c2ccc(Cl)cc21 (stereo not shown) [Example I-37, 2-(6-Chloro-1-methyl-1H-indazol-3-yl)-5H-pyrrolo[2,3-b]pyrazine-7-carboxylic acid (3-amino-cyclopentyl)-amide]
[1]
  IC50: 6.4 nM
[2]
  IC50: 39.2 nM

## Cn1nc(-c2cnc3[nH]cc(C(=O)N[C@H]4CC[C@@H](O)C4)c3n2)c2ccc(F)cc21 (relative stereo) [Example I-46, 2-(6-Fluoro-1-methyl-1H-indazol-3-yl)-5H-pyrrolo[2,3-b]pyrazine-7-carboxylic acid (cis-3-hydroxy-cyclopentyl)-amide]
[1]
  IC50: 10.3 nM
[2]
  IC50: 2.86 nM
